From patent publication EP4417602A1, “SUBSTITUTED PYRAZOLE CARBOXAMIDES, SALTS THEREOF AND THEIR USE AS HERBICIDALLY ACTIVE SUBSTANCES” (Bayer AG, priority 2023, dated 2024)

Experiments:
POAAN [1] = assay: B. Herbicidal post-emergence action on harmful plants (Tables B); assay type: in vivo, Poa annua; settings: application rate 1280 g/ha; Table B7a
Procedure, shortened: (§1)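 Activity was scored visually as % damage (100% = dead, 0% = like untreated) about 3 weeks after treatment. Plants at the one-leaf stage, 2-3 weeks old, were sprayed with WP/EC formulations plus 0.5% additive (600 L/ha water, up to 1280 g/ha). Plants were grown in sandy loam in a greenhouse.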

AMARE [2] = assay: A. Herbicidal pre-emergence action on harmful plants (Tables A); assay type: in vivo, Amaranthus retroflexus
Procedure, shortened: (§2)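 Greenhouse pre-emergence test: compound applied to the soil surface at 1280 g/ha or below, and herbicidal effect rated visually at ca. 3 weeks on a 0–100% scale against untreated plants.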

MATIN = assay: as above; assay type: in vivo, Matricaria inodora; settings: visual grading after ca. 3 weeks vs untreated controls, 100% = plants have died off, 0% = as control plants
Procedure, shortened: as §2

AMARE [3] = assay: B. Herbicidal post-emergence action on harmful plants (Tables B); assay type: in vivo, Amaranthus retroflexus; settings: application rate 1280 g/ha; Table B8
Procedure, shortened: as §1

POAAN [4] = assay: A. Herbicidal pre-emergence action on harmful plants (Tables A); assay type: in vivo, Poa annua
Procedure, shortened: as §2

KCHSC [5] = assay: B. Herbicidal post-emergence action on harmful plants (Tables B); assay type: in vivo, Kochia scoparia; settings: application rate 1280 g/ha; Table B10a
Experimental: Seeds of mono- and dicotyledonous weed plants were placed in plastic pots in sandy loam soil (doubly sown with in each case one species of mono- or dicotyledonous weed plants per pot), covered with soil and cultivated in a greenhouse under controlled growth conditions. 2 to 3 weeks after sowing, the test plants were treated at the one-leaf stage. The compounds of the invention, formulated in the form of wettable powders (WP) or as emulsion concentrates (EC), were applied onto the green parts of the plants as aqueous suspension or emulsion with addition of 0.5% additive at a water application rate of 600 liters per hectare (converted). After the test plants had been kept in the greenhouse under optimum growth conditions for about 3 weeks, the activity of the preparations was rated visually in comparison to untreated controls. For example, 100% activity = the plants have died, 0% activity = like control plants. Tables B1 to B12, below, show the effects of selected compounds of the general formula (I) according to table 1 on various harmful plants and an application rate corresponding to 1280 g/ha or below obtained by the experimental procedure mentioned above. Table B1a: post-emergence activity at 1280g/ha against ABUTH in %

LOLRI = assay: A. Herbicidal pre-emergence action on harmful plants (Tables A); assay type: in vivo, Lolium rigidum; settings: visual grading after ca. 3 weeks vs untreated controls, 100% = plants have died off, 0% = as control plants
Procedure, shortened: as §2

ECHCG = assay: as above; assay type: in vivo, Echinochloa crus-galli; settings: visual grading after ca. 3 weeks vs untreated controls, 100% = plants have died off, 0% = as control plants
Procedure, shortened: as §2

DIGSA = assay: as above; assay type: in vivo, Digitaria sanguinalis
Procedure, shortened: as §2

SETVI [6] = assay: B. Herbicidal post-emergence action on harmful plants (Tables B); assay type: in vivo, Setaria viridis; settings: application rate 1280 g/ha; Table B5
Procedure, shortened: as §1

ABUTH = assay: A. Herbicidal pre-emergence action on harmful plants (Tables A); assay type: in vivo, Abutilon theophrasti; settings: application rate 1280 g/ha; visual grading after ca. 3 weeks vs untreated controls; 100% = plants have died off, 0% = as control plants
From the text: (§3) Seeds of mono- and dicotyledonous weed plants were sown in plastic pots (double sowings with one species of mono- and one species of dicotyledonous weed plants per pot), in sandy loam, and covered with soil. The compounds according to the invention, formulated in the form of wettable powders (WP) or as emulsifiable concentrates (EC), were applied to the surface of the covering soil as aqueous suspension or emulsion, with the addition of 0.5% of an additive, at an application rate of 6001 of water per hectare (converted). Following treatment, the pots were placed in a greenhouse and kept under optimum growth conditions for the test plants. The visual grading of the damage to the test plants was carried out after ca. 3 weeks in comparison to untreated controls (herbicidal effect in percent (%): 100% effect = plants have died off, 0% effect = as control plants). Tables A1 to A12, below, show the effects of selected compounds of the general formula (I) according to table 1 on various harmful plants and an application rate corresponding to 1280 g/ha or below obtained by the experimental procedure mentioned above. Table A1: pre-emergence activity at 1280g/ha against ABUTH in %

STEME [7] = assay: as above; assay type: in vivo, Stellaria media; settings: visual grading after ca. 3 weeks vs untreated controls, 100% = plants have died off, 0% = as control plants
Procedure, shortened: as §2

STEME [8] = assay: B. Herbicidal post-emergence action on harmful plants (Tables B); assay type: in vivo, Stellaria media; settings: application rate 1280 g/ha; Table B6
Procedure, shortened: as §1

SETVI [9] = assay: A. Herbicidal pre-emergence action on harmful plants (Tables A); assay type: in vivo, Setaria viridis; settings: visual grading after ca. 3 weeks vs untreated controls, 100% = plants have died off, 0% = as control plants
Procedure, shortened: as §2

VERPE = assay: B. Herbicidal post-emergence action on harmful plants (Tables B); assay type: in vivo, Veronica persica; settings: application rate 1280 g/ha; Table B11a
Procedure, shortened: as §1

KCHSC [10] = assay: A. Herbicidal pre-emergence action on harmful plants (Tables A); assay type: in vivo, Kochia scoparia; settings: application rate 1280 g/ha; visual grading after ca. 3 weeks vs untreated controls; 100% = plants have died off, 0% = as control plants
From the text: as §3

KCHSC [11] = assay: C. Herbicidal pre-emergence action, weed and crop plants (Tables C); assay type: in vivo, Kochia scoparia; settings: application rate 320 g/ha; Table C1
From the text: (§4) Seeds of mono- and dicotyledonous weed plants and crop plants were sown, in plastic or organic planting pots, in sandy loam and covered with soil. The compounds according to the invention, formulated in the form of wettable powders (WP) or as emulsifiable concentrates (EC), were applied to the surface of the covering soil as aqueous suspension or emulsion, with the addition of 0.5% of an additive, at an application rate of 6001 of water/ha (converted). Following treatment, the pots were placed in a greenhouse and kept under optimum growth conditions for the test plants. The visual grading of the damage to the test plants was carried out after ca. 3 weeks in comparison to untreated controls (herbicidal effect in percent (%): 100% effect = plants have died off, 0% effect = as control plants). Tables C1 to C12 below show the effects of selected compounds of the general formula (I) according to table 1 on various harmful plants and an application rate corresponding to 320 g/ha or below obtained by the experimental procedure mentioned above. Table C1: pre-emergence activity at 320g/ha against KCHSC in %

BRSNW [12] = assay: D. Pre-emergence effects on crop plants (Tables D); assay type: in vivo, Brassica napus; settings: crop plant
Procedure, shortened: (§5)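 Pre-emergence soil-surface treatment at 320 g/ha or lower, using wettable-powder or emulsifiable-concentrate formulations in water plus 0.5% additive, over freshly sown seeds in covered sandy loam. Damage was rated visually as percent versus untreated pots (100% = dead plants) after about 3 weeks of greenhouse growth.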

VIOTR = assay: C. Herbicidal pre-emergence action, weed and crop plants (Tables C); assay type: in vivo, Viola tricolor; settings: application rate 320 g/ha; Table C12a
From the text: as §4

GLXMA [13] = assay: D. Pre-emergence effects on crop plants (Tables D); assay type: in vivo, Glycine max; settings: crop plant
Procedure, shortened: as §5

TRZAS [14] = assay: F. Post-emergence effects on crop plants (Tables F); assay type: in vivo, Triticum aestivum; settings: crop plant
Procedure, shortened: (§6)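 Plants were grown in sandy loam in a greenhouse and sprayed post-emergence at the single-leaf stage, 2–3 weeks after sowing. Visual damage was scored after ca. 3 weeks against untreated controls (0% = as control, 100% = dead).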

ZEAMX [15] = assay: as above; assay type: in vivo, Zea mays; settings: crop plant
Procedure, shortened: as §6

ZEAMX [16] = assay: D. Pre-emergence effects on crop plants (Tables D); assay type: in vivo, Zea mays; settings: crop plant
From the text: (§7) Seeds of mono- and dicotyledonous weed plants and crop plants were sown, in plastic or organic planting pots, in sandy loam and covered with soil. The compounds according to the invention, formulated in the form of wettable powders (WP) or as emulsifiable concentrates (EC), were applied to the surface of the covering soil as aqueous suspension or emulsion, with the addition of 0.5% of an additive, at an application rate of 6001 of water/ha (converted).
(§8) Following treatment, the pots were placed in a greenhouse and kept under optimum growth conditions for the test plants. The visual grading of the damage to the test plants was carried out after ca. 3 weeks in comparison to untreated controls (herbicidal effect in percent (%): 100% effect = plants have died off, 0% effect = as control plants).
(§9) Tables D1 to D5 below show the effects of various compounds of the general formula (I) according to Table 1 on various crop plants and an application rate corresponding to 320 g/ha or below obtained by the experimental procedure mentioned above in Biological Examples, Section C. Table D1a: pre-emergence activity at 320g/ha against ZEAMX in %

BRSNW [17] = assay: F. Post-emergence effects on crop plants (Tables F); assay type: in vivo, Brassica napus; settings: application rate 320 g/ha, crop plant
Procedure, shortened: as §6

GLXMA [18] = assay: as above; assay type: in vivo, Glycine max; settings: application rate 320 g/ha, crop plant
Procedure, shortened: as §6

TRZAS [19] = assay: D. Pre-emergence effects on crop plants (Tables D); assay type: in vivo, Triticum aestivum; settings: crop plant
From the text: as §7, §8, §9

[20] = application rate 1280 g/ha, visual grading after ca. 3 weeks vs untreated controls, 100% = plants have died off, 0% = as control plants
[21] = application rate 80 g/ha, Table A7c
[22] = application rate 320 g/ha, Table A7b
[23] = application rate 320 g/ha, Table A12b
[24] = application rate 1280 g/ha, Table A12a

Cn1ncc(C(=O)N2CCCC2Cc2ccccc2F)c1COCC(F)(F)F (single isomer, unassigned) [Example I-122]
90%: post-emergence activity against POAAN (POAAN [1]) | post-emergence activity against AMARE (AMARE [3]) | pre-emergence activity against POAAN (POAAN [4]; [21]) | post-emergence activity against KCHSC (KCHSC [5]) | pre-emergence activity against ECHCG (ECHCG; application rate 80 g/ha) | pre-emergence activity against DIGSA (DIGSA; application rate 80 g/ha, Table A12c) | pre-emergence activity against DIGSA (DIGSA; [23]) | post-emergence activity against SETVI (SETVI [6]) | pre-emergence activity against STEME (STEME [7]; application rate 320 g/ha) | post-emergence activity against STEME (STEME [8]) | pre-emergence activity against SETVI (SETVI [9]; application rate 80 g/ha) | pre-emergence activity against SETVI (SETVI [9]; application rate 320 g/ha)
100%: pre-emergence activity against AMARE (AMARE [2]; [20]) | pre-emergence activity against MATIN (MATIN; application rate 1280 g/ha) | pre-emergence activity against POAAN (POAAN [4]; [22]) | pre-emergence activity against POAAN (POAAN [4]; [20]) | pre-emergence activity against LOLRI (LOLRI; application rate 320 g/ha) | pre-emergence activity against LOLRI (LOLRI; application rate 1280 g/ha) | pre-emergence activity against ECHCG (ECHCG; application rate 320 g/ha) | pre-emergence activity against ECHCG (ECHCG; application rate 1280 g/ha) | pre-emergence activity against DIGSA (DIGSA; [24]) | pre-emergence activity against ABUTH (ABUTH) | pre-emergence activity against STEME (STEME [7]; application rate 1280 g/ha) | pre-emergence activity against SETVI (SETVI [9]; application rate 1280 g/ha)

COCc1nn(Cc2ccccc2)cc1C(=O)N1CCCC1Cc1ccccc1F (racemic) [Example I-024]
100%: pre-emergence activity against POAAN (POAAN [4]; [20]) | pre-emergence activity against STEME (STEME [7]; application rate 1280 g/ha)
90%: pre-emergence activity against AMARE (AMARE [2]; application rate 320 g/ha, Table A8b) | pre-emergence activity against AMARE (AMARE [2]; [20]) | post-emergence activity against VERPE (VERPE) | pre-emergence activity against MATIN (MATIN; application rate 80 g/ha) | pre-emergence activity against MATIN (MATIN; application rate 320 g/ha) | pre-emergence activity against MATIN (MATIN; application rate 1280 g/ha) | pre-emergence activity against POAAN (POAAN [4]; [21]) | pre-emergence activity against POAAN (POAAN [4]; [22]) | pre-emergence activity against KCHSC (KCHSC [10]) | pre-emergence activity against DIGSA (DIGSA; [23]) | pre-emergence activity against DIGSA (DIGSA; [24]) | pre-emergence activity against STEME (STEME [7]; application rate 320 g/ha) | pre-emergence activity against SETVI (SETVI [9]; application rate 80 g/ha) | pre-emergence activity against SETVI (SETVI [9]; application rate 320 g/ha) | pre-emergence activity against SETVI (SETVI [9]; application rate 1280 g/ha)

COCc1c(C(=O)N2CCCC2(C)Cc2ccccc2F)cnn1C (single isomer, unassigned) [Example I-066]
100%: pre-emergence activity against KCHSC (KCHSC [11])
80%: pre-emergence activity against VIOTR (VIOTR)
0%: pre-emergence activity against BRSNW in % (BRSNW [12]; application rate 80 g/ha) | pre-emergence activity against BRSNW in % (BRSNW [12]; application rate 320 g/ha) | pre-emergence activity against GLXMA (GLXMA [13]; application rate 80 g/ha, Table D4b) | pre-emergence activity against GLXMA (GLXMA [13]; application rate 320 g/ha, Table D4a) | post-emergence activity against TRZAS in % (TRZAS [14]; application rate 80 g/ha) | post-emergence activity against TRZAS in % (TRZAS [14]; application rate 320 g/ha) | post-emergence activity against ZEAMX in % (ZEAMX [15]; application rate 80 g/ha) | post-emergence activity against ZEAMX in % (ZEAMX [15]; application rate 320 g/ha) | pre-emergence activity against ZEAMX (ZEAMX [16]; application rate 80 g/ha, Table D1b) | pre-emergence activity against ZEAMX (ZEAMX [16]; application rate 320 g/ha, Table D1a) | post-emergence activity against BRSNW in % (BRSNW [17]) | post-emergence activity against GLXMA in % (GLXMA [18]) | pre-emergence activity against TRZAS (TRZAS [19]; application rate 80 g/ha, Table D2b) | pre-emergence activity against TRZAS (TRZAS [19]; application rate 320 g/ha, Table D2a)
